Test results: patent US10550105B2 (Ribon Therapeutics Inc., priority 2018, dated 2020)

What was measured:
[1] = test system: NCI-H1373 lung cancer cells; experiment: Inhibition of cancer cell growth in NCI-H1373 lung cancer cells (FIG. 2); type: cell-based, human
4T1-luc2-1A4 tumors = experiment: Inhibition of tumor growth, murine syngeneic model 4T1 (orthotopic, mammary fat pad); type: in vivo; conditions: 4T1 orthotopic in female BALB/c mice, vs vehicle (FIG. 6)
Text: Example G: Inhibition of Tumor Growth by Treatment with PARP7 Inhibitors For the 4T1 study female BALB/c mice were inoculated orthotopically in the mammary fat pad with 4T1-1uc2-1A4 cells for tumor development. Eight days after tumor inoculation, 45 mice with tumor size ranging from 63-88 mm^3 (average tumor size 67 mm^3) were selected and assigned into 3 groups using stratified randomization with 15 mice in each group based upon their tumor volumes. The treatments were started from the next day post randomization (defined randomization day as D0) and were treated with vehicle (0.5% methylcellulose +0.2% Tween 80), Compound 98 (500 mg/kg S.C. QD*21 days), Compound 93A (100 mg/kg S.C. BID*21 days) respectively. The tumor sizes were measured three times per week during the treatment. The entire study was terminated on D20. Mean tumor volume and SEM for both studies are plotted. Statistical significance, calculated using two-tailed unpaired t-tests in which each treatment group was compared to vehicle control, is indicated by an asterisk. Statistics were performed on groups with less than 20% animal loss (D21 for CT26, D17 for 4T1).

PARP7 [2] = target: T1, PARP7 (Homo sapiens (Human), UniProt Q7Z3E1); experiment: Enzymatic assay for inhibition of PARP7: TR-FRET displacement of biotinylated Probe A from the TIPARP active site; type: binding; conditions: Table A-1
T1 sequence (Q7Z3E1 whole entry): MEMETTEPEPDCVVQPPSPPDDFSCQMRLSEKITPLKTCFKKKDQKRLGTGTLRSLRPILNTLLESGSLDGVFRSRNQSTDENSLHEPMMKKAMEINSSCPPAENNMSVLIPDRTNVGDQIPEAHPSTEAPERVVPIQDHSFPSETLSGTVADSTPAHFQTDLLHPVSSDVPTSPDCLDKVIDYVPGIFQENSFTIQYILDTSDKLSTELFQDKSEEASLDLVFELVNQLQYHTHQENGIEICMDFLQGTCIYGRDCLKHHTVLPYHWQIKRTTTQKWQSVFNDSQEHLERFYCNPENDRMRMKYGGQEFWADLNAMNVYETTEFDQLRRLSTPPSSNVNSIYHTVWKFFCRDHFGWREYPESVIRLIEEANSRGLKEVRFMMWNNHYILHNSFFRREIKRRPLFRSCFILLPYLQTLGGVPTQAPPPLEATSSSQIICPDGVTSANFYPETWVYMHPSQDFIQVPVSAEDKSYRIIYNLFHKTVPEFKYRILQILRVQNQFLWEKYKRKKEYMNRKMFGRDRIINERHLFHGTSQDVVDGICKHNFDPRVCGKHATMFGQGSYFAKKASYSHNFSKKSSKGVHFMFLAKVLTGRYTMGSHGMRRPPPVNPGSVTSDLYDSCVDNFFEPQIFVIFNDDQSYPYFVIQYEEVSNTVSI
Method in brief: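 TR-FRET, ex 320 nm / em 615 and 665 nm. Signal ratio reflects complex formation.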

CT26 tumors = experiment: Inhibition of tumor growth, murine syngeneic model CT26 (subcutaneous dosing); type: in vivo; conditions: CT26 in BALB/c mice, vs vehicle (FIG. 6)
Procedure: For the CT26 study BALB/c mice were inoculated subcutaneously at the right flank with CT26 cells for tumor development. Four days after tumor inoculation, 36 mice with tumor size ranging from 40-55 mm^3 (average tumor size 47 mm^3) were selected and assigned into 3 groups using stratified randomization with 12 mice in each group based upon their tumor volumes. The treatments were started from the next day post randomization (defined randomization day as day 0) and were treated with vehicle (0.5% methylcellulose+0.2% Tween 80), Compound 98 (500 mg/kg S.C. QD*21 days), Compound 93A (100 mg/kg S.C. BID*21 days) respectively. The tumor sizes were measured three times per week during the treatment. The entire study was terminated on day 21. Mean tumor volume and SEM for both studies are plotted. Statistical significance, calculated using two-tailed unpaired t-tests in which each treatment group was compared to vehicle control, is indicated by an asterisk. Statistics were performed on groups with less than 20% animal loss (D21 for CT26, D17 for 4T1).

interferon-beta (IFN-β) [3] = experiment: Induction of interferon-beta levels in RAW264.7 macrophages in the presence of STING agonist DMXAA (FIG. 3); type: cell-based; conditions: RAW264.7 mouse macrophages
interferon-beta (IFN-β) [4] = experiment: Induction of interferon-beta levels in CT26 cells in the presence of STING agonist DMXAA (FIG. 3); type: cell-based; conditions: CT26 mouse colon cancer cells
PARP7 [5] = target: T1, PARP7; experiment: Inhibition of PARP7 (Table A-1); type: biochemical; conditions: comparison of separated isomers, see Table A-1

Row | SMILES | IC50 (PARP7 [2]) [nM] | further results
1 | N#Cc1ccc(N2CCN(C(=O)CCOC[C@@H]3c4ccccc4CN3c3cn[nH]c(=O)c3C(F)(F)F)CC2)nc1 (single isomer, unassigned) [Example 93 Isomer A] | < 100 | growth of NCI-H1373 lung cancer cells [1]: dose-dependent decrease in growth; tumor growth (4T1-luc2-1A4 tumors; 100 mg/kg S.C. BID*21 days): significantly reduce tumor growth; tumor growth (CT26 tumors; 100 mg/kg S.C. BID*21 days): significantly reduce tumor growth
2 | N#Cc1ccc(N2CCN(C(=O)C[C@H]3CC[C@@H]([C@@H]4CCCN4c4cn[nH]c(=O)c4C(F)(F)F)O3)CC2)nc1 [Example 141B, 6-(4-[2-[(2R,5S)-5-[(2S)-1-[6-oxo-5-(trifluoromethyl)-1,6-dihydropyridazin-4-yl]pyrrolidin-2-yl]oxolan-2-yl]acetyl]piperazin-1-yl)pyridine-3-carbonitrile] | < 100 | relative potency of the enantiomers / diastereomers (PARP7 [5]): more potent enantiomer
3 | CC[C@@H](COCCC(=O)N1CCN(c2ncc(Cl)cn2)CC1)Oc1cn[nH]c(=O)c1Br [Example 727, (S)-4-Bromo-5-((1-(3-(4-(5-chloropyrimidin-2-yl)piperazin-1-yl)-3-oxopropoxy)butan-2-yl)oxy)pyridazin-3(2H)-one] | < 100 | –
4 | C[C@@H](COCCS(=O)(=O)N1CCN(c2ncc(C(F)(F)F)cn2)CC1)Oc1cn[nH]c(=O)c1C(F)(F)F [Example 728, (S)-4-(Trifluoromethyl)-5-((1-(2-((4-(5-(trifluoromethyl)pyrimidin-2-yl)piperazin-1-yl)sulfonyl)ethoxy)propan-2-yl)oxy)pyridazin-3(2H)-one] | < 100 | –
5 | C[C@@H](COCCC(=O)N1CCN(c2ncc(C(F)(F)F)s2)CC1)Oc1cn[nH]c(=O)c1Cl [Example 729, (S)-4-Chloro-5-((1-(3-oxo-3-(4-(5-(trifluoromethyl)thiazol-2-yl)piperazin-1-yl)propoxy)propan-2-yl)oxy)pyridazin-3(2H)-one] | 100 to 1000 | –
6 | C[C@@H](COCCS(=O)(=O)N1CCN(c2ncc(C(F)(F)F)s2)CC1)Nc1cn[nH]c(=O)c1Cl [Example 731, (S)-4-Chloro-5-((1-(2-((4-(5-(trifluoromethyl)thiazol-2-yl)piperazin-1-yl)sulfonyl)ethoxy)propan-2-yl)amino)pyridazin-3(2H)-one] | < 100 | –
7 | C[C@@H](COCCS(=O)(=O)N1CCN(c2ncc(C(F)(F)F)s2)CC1)Nc1cn[nH]c(=O)c1Br [Example 732, (S)-4-Bromo-5-((1-(2-((4-(5-(trifluoromethyl)thiazol-2-yl)piperazin-1-yl)sulfonyl)ethoxy)propan-2-yl)amino)pyridazin-3(2H)-one] | < 100 | –

More lines, main results first:

Row | IC50 (PARP7 [2]) [nM] | SMILES | further results
8 | < 100 | N#Cc1ccc(N2CCN(C(=O)c3cccc(OCCOc4cccc5c4CN(c4cn[nH]c(=O)c4C(F)(F)F)C5)c3)CC2)nc1 [Example 39, 6-[4-([3-[2-([2-[6-Oxo-5-(trifluoromethyl)-1,6-dihydropyridazin-4-yl]-2,3-dihydro-1H-isoindol-4-yl]oxy)ethoxy]phenyl]carbonyl)piperazin-1-yl]pyridine-3-carbonitrile] | growth of NCI-H1373 lung cancer cells [1]: dose-dependent decrease in growth
9 | < 100 | N#Cc1ccc(N2CCN(C(=O)CCOC[C@@H]3CCCN3c3cn[nH]c(=O)c3C(F)(F)F)CC2)nc1 [Example 98, 6-[4-(3-[[(2S)-1-[6-Oxo-5-(trifluoromethyl)-1,6-dihydropyridazin-4-yl]pyrrolidin-2-yl]methoxy]propanoyl)piperazin-1-yl]pyridine-3-carbonitrile] | growth of NCI-H1373 lung cancer cells [1]: dose-dependent decrease in growth; tumor growth (4T1-luc2-1A4 tumors; 500 mg/kg S.C. QD*21 days): significantly reduce tumor growth; tumor growth (CT26 tumors; 500 mg/kg S.C. QD*21 days): significantly reduce tumor growth; interferon-beta (IFN-β) levels (interferon-beta (IFN-β) [3]): induction; interferon-beta (IFN-β) levels (interferon-beta (IFN-β) [4]): induction
10 | 100 to 1000 | C[C@@H](COCCC(=O)N1CCN(c2ncc(C(F)(F)F)s2)CC1)Oc1cn[nH]c(=O)c1Br [Example 730, (S)-4-Bromo-5-((1-(3-oxo-3-(4-(5-(trifluoromethyl)thiazol-2-yl)piperazin-1-yl)propoxy)propan-2-yl)oxy)pyridazin-3(2H)-one] | –
11 | < 100 | Cc1cnc(N2CCN(C(=O)CCOC[C@H](C)Nc3cn[nH]c(=O)c3C(F)(F)F)CC2)s1 [Example 733, (S)-5-((1-(3-(4-(5-Methylthiazol-2-yl)piperazin-1-yl)-3-oxopropoxy)propan-2-yl)amino)-4-(trifluoromethyl)pyridazin-3(2H)-one] | –
